Results as given in patent US5618537A, “Plant-based medicaments for increasing the tone and modulating the tone of the smooth muscular organ” (Steigerwald Arzneimittelwerk GmbH, priority 1991, dated 1997).

Columns and labels:
[1] = test system: carrageenan oedema; test: Carrageenan oedema model of the rat (paw volume, plethysmometer); assay type: in vivo; conditions: 4 mg/kg of body wt., 1/2 h before induction
Method: The carrageenan oedema model of the rat is an internationally recognised pharmacological method for uncovering clinically relevant anti-inflammatory agents.
The test substances were administered 1/2 h before induction of oedema; the control animals received the solvent (30% ethanol). The paw volume was measured with a plethysmometer before (0 value) oedema induction and 1, 2, 3, 4 and 6 hours after.
The anti-inflammatory action of the test substances was calculated according to the formula [formula] V=average value of the differences from the 0 value: drug group K=average value of the differences from the 0 value; control group

[2] = test system: guinea-pig ileum; test: Increase in basal tone of resting isolated guinea-pig ileum (Magnus model); set-up: unit not given here; conditions: 40 μg/l; for Contraction induced by acetylcholine, Average value: average of 6

Compound	% inhibition of carrageenan oedema ([1]; 1 h after oedema induction)	% inhibition of carrageenan oedema ([1]; 2 h after oedema induction)	% inhibition of carrageenan oedema ([1]; 3 h after oedema induction)	% inhibition of carrageenan oedema ([1]; 4 h after oedema induction)	% inhibition of carrageenan oedema ([1]; 6 h after oedema induction)	Contraction induced by acetylcholine (comparison for increase in basal tone) ([2]; Table 2 series (STW 5-II), Expt. 1)	Contraction induced by acetylcholine (comparison for increase in basal tone) ([2]; Table 2 series (STW 5-II), Expt. 2)	Contraction induced by acetylcholine (comparison for increase in basal tone) ([2]; Table 2 series (STW 5-II), Expt. 3)	Contraction induced by acetylcholine (comparison for increase in basal tone) ([2]; Table 2 series (STW 5-II), Expt. 4)	Contraction induced by acetylcholine (comparison for increase in basal tone) ([2]; Table 2 series (STW 5-II), Expt. 5)	Contraction induced by acetylcholine (comparison for increase in basal tone) ([2]; Table 2 series (STW 5-II), Expt. 6)	Contraction induced by acetylcholine, Average value ([2]; Table 2 series (STW 5-II))	Contraction induced by acetylcholine (comparison for increase in basal tone) ([2]; Table 3 series (STW 5), Expt. 1)	Contraction induced by acetylcholine (comparison for increase in basal tone) ([2]; Table 3 series (STW 5), Expt. 2)	Contraction induced by acetylcholine (comparison for increase in basal tone) ([2]; Table 3 series (STW 5), Expt. 3)	Contraction induced by acetylcholine (comparison for increase in basal tone) ([2]; Table 3 series (STW 5), Expt. 4)	Contraction induced by acetylcholine (comparison for increase in basal tone) ([2]; Table 3 series (STW 5), Expt. 5)	Contraction induced by acetylcholine (comparison for increase in basal tone) ([2]; Table 3 series (STW 5), Expt. 6)	Contraction induced by acetylcholine, Average value ([2]; Table 3 series (STW 5))
COc1ccc2c(c1)c(CC(=O)O)c(C)n2C(=O)c1ccc(Cl)cc1 [Indomethacin]	24.0%	23.5%	35.0%	47.5%	61.3%	–	–	–	–	–	–	–	–	–	–	–	–	–	–
CC(=O)OCC[N+](C)(C)C [Acetylch., acetylcholine]	–	–	–	–	–	10.1	14.6	11.7	14.0	12.7	8.6	11.95	11.8	6.3	12.1	9.9	12.2	5.9	9.70
